Key:
HDAC4 = molecular target: T1, HDAC4 (Mus musculus, UniProt Q6NZM9); assay: HDAC4 protein level in barrel cortex by Western blot; assay type: in vivo; conditions: mice barrel cortex
T1 construct: Cortical tissue from mice was prepared according to protocol above then was homogenized and lysed for protein extraction; from tissue; host or cells: barrel cortex of C57BL/6J mice

GluN2B = GluN2B protein expression by Western blot in primary cortical neuron cells; assay type: cell-based, mouse
Method: Meanwhile, primary cortical neuron cells were isolated from cerebral cortices of 18-day-old mouse fetuses, incubated in prep media (composition (mM): NaCl 107.5, NaH2PO4 1, NaHCO333.5, glucose 11, HEPS 1%, penicillin-streptomycin 1%) containing 0.25% trypsin and DNasel for 30 minutes, dissociated into single cells, and seeded. Primary cortical neuron cells were grown in Neurobasal medium supplemented with 1% (v/v) B27, 1% penicillin (100 U/mL), streptomycin ([…]), and 1% Glutamax. Cells were maintained in a humidified atmosphere of 95% air and 5% CO2 at 37° C. Drug efficacy was evaluated after culturing primary cortical neuron cells for 14 days.
The amount of GluN2B reacted with the compound of the present disclosure was measured using Western blot. The fetal cerebral cortex was extracted from mice at 17 days of gestation, dissociated into single cells, cultured for 13 days, and treated with BnH drugs for 24 hours. The drug-treated cells were subjected to protein lysate preparation using RIPA protein lysis buffer containing protease and phosphatase inhibitors. The protein concentration was determined using a BCA protein assay kit (Pierce Biotechnology) using bovine serum albumin as a standard. Equal amounts of protein (20 μg per lane) were separated by electrophoresis on SDS-polyacrylamide gels at 90 V for 2 hours, then transferred from the SDS-polyacrylamide gel to PVDF membrane at 100 V for 1 hour. Then, primary reaction with GluN2B antibody (ab65783, Abcam) was performed at 4° C. for 1 day, washed three times at 10-minutes intervals with 1×PBT, and secondary reaction was performed with anti-mouse antibody (sc-2357, Santa Cruz) for 1 hour, followed by washing three times at 10-minutes intervals with 1×PBT. Western blotting was performed as described above to confirm GluN2B protein expression. Subsequently, each blot was re-probed using anti-β-actin antibody (sc-47778, Santa Cruz). Housekeeping protein B-actin was detected as a normalization control.
The increase and decrease of BnH12 series were confirmed by setting the vehicle to 1 (N for each group was 3 or more).
Using the experimental procedure described in Example 3, it was determined whether various BnH12 series compounds increase GluN2B expression, and the results are shown in Table 5. These in vitro experimental results are expressed as relative values to the group (vehicle) that was not treated with the compound, with the effect of the group set to 1.

SH-SY5Y cells = assay: Cytotoxicity test (CCK-8 cell viability) in SH-SY5Y cells; assay type: cell-based, human; conditions: SH-SY5Y, 0, 0.1, 1, 10, 100 μM, 24 hours
Method: Human undifferentiated neuroblastoma cell line SH-SY5Y and human embryonic kidney cell line (HEK)-293T were purchased from Korean Cell Line Bank (Korea) and Takara (Japan), respectively. Cells were grown in HyClone Minimal Essential Medium (MEM) and Dulbecco's Modified Eagle Medium (DMEM), respectively, supplemented with 10% (v/v) fetal bovine serum (FBS), penicillin (100 U/mL), and streptomycin ([…]). Cells were maintained in a humidified atmosphere of 95% air and 5% CO2 at 37° C. Cells were passaged 10 times at maximum. Cells were dissociated using 0.05% trypsin-EDTA solution and the cells were seeded in new culture dishes for maintenance. […]
The time of co-incubation was 24 hours and six replicates were made for each measurement. Finally, 10 μL of CCK-8 reagent (Dojindo Laboratories, Rockville, MD) was added to each well, and after incubation at 37° C. for 3 minutes, the OD at 450 nm was measured using a multifunction microplate reader (Tecan Infinite M200 Pro). These measurements were compared to that of a control and expressed as a percentage of the control to calculate cell viability. The IC50 value was calculated using SPSS software. To do this, the absorbance of the blank wells with only growth medium is subtracted from the values or the wells with cells. […]
The cytotoxicity of the compound was evaluated by treating cells with BnH12003 and measuring cell viability.

293T cells = assay: Cytotoxicity test (CCK-8 cell viability) in 293T cells; assay type: cell-based, human
How it was run: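 293T cells plated 24 h, then exposed to serial compound concentrations for 24 h (six replicates). Viability by CCK-8 ([…], OD 450 nm), blank-subtracted and expressed as percent of vehicle control; IC50 calculated from these values.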

T1 sequence (Q6NZM9 whole entry): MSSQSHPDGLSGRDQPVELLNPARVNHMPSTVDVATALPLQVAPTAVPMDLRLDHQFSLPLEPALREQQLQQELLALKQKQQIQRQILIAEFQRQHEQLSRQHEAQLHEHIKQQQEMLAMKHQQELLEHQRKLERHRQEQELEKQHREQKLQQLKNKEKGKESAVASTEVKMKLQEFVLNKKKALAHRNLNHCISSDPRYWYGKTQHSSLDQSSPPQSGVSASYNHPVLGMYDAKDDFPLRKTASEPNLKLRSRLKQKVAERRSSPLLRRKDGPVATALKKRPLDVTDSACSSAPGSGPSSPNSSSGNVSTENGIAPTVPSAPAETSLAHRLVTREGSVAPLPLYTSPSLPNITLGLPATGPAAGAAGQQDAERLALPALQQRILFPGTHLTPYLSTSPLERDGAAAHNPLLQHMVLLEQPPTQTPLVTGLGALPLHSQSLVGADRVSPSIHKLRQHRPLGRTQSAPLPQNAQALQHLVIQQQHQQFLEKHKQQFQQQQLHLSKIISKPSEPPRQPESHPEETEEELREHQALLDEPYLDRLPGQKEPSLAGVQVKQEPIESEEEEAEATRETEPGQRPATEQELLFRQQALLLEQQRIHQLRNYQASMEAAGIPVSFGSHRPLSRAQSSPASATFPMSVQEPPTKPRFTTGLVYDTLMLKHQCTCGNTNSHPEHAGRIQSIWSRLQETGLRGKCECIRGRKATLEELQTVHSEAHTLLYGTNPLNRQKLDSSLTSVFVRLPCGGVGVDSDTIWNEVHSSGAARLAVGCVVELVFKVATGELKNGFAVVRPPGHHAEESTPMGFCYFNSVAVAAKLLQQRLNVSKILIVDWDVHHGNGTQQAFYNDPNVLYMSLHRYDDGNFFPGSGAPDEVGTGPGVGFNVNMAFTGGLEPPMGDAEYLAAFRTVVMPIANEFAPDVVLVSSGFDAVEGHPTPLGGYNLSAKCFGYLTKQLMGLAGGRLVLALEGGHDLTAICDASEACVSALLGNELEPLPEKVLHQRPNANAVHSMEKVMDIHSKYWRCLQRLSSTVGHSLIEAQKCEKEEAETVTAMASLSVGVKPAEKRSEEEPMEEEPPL

HDAC4 protein expression (HDAC4; intraperitoneal administration): significantly suppressed
HDAC4 protein expression (HDAC4; oral administration): significantly suppressed
duration of the inhibitory effect on HDAC4 protein expression (HDAC4; oral and intraperitoneal administration): ≥ 10 days
Structure (SMILES): C[C@H]1CC[C@@H](C(=O)O)CN1C(=O)Cc1ccc(-c2cncnc2)cc1 [BnH12003, (3R,6S)-6-methyl-1-(2-(4-(pyrimidin-5-yl)phenyl)acetyl) piperidine-3-carboxylic acid]
GluN2B expression effect (in words) (GluN2B; compared to vehicle / other compounds, Table 5): excellent effects
Western blot results Mean (GluN2B expression) (GluN2B; relative value, vehicle set to 1, primary cortical neurons treated for 24 hours): 2.141
cell viability (SH-SY5Y cells): no significant change in cell viability
Cell viability test results (CCK) 10 uM (293T cells; 293T cell line, 10 uM): 99%<
Cell viability test results (CCK) 100 uM (293T cells; 293T cell line, 100 uM): 90%<
cell viability (293T cells; 293T, 0, 0.1, 1, 10, 100 μM, 24 hours, CCK-8): no significant change in cell viability
